# Measured values reported in patent publication US20050220726A1, “Use of sugar esters in cosmetic and/or pharmaceutical preparations” (priority 2003, published 2005).
# How the values were obtained:
# human fibroblasts [1] = test: Regenerative effect and detoxifying potential: GSH in human fibroblasts; type: cell-based; settings: conc. 0.001 % w/v; 3 days in test solution; against blank sample = 100
# Protocol: Glutathione (GSH) is a special protein which is produced by the cells for protection against oxidative stress and environmental poisons, more particularly against heavy metals. The three amino acids involved in the reduced form of GSH are linked to special cytoplasmatic enzymes which need ATP for activation. An increase in the GSH concentration leads to an increase in the glutatione-S-transferase activity, a detoxifying enzyme. The stimulation for detoxification by the test substances was tested on human fibroblasts by measurement of the GSH. In a series of tests, fibroblasts were first incubated for 3 days at 37° C. in a nutrient solution and then for 3 days at the same temperature in a test solution. The protein content in the cells was then determined by the Bradford method and the GSH concentration by the Hissin method [cf. Analytical Biochem. 74, 214-226 1977]. The results are set out in Table 2, where they are expressed in %-rel. against a blank sample, and represent the results of 3 series of measurements with triple determination.
# human fibroblasts [2] = test: Anti-stress effect on UV-A-damaged fibroblasts; type: cell-based; settings: conc. 0.001 % w/v, + UV-A 20 J/cm^2; for Cell proteins: blank sample = 100; for GSH/proteins: blank sample = 100, blank + UV-A = 65
# Protocol: UV-A radiation in the 320 to 400 nm range induces oxidative stress which is mainly produced by the activation of photosensitive biological components which in turn catalyze the formation of ROS-like superoxide anions, hydrogen peroxide and singlet oxygen atoms. The anti-UV-A effect was tested on fibroblasts because UV-A radiation penetrates through the dermis where it causes oxidative damage by lipoperoxidation of the cell membrane and a reduction in the content of reduced glutathione (GHS). To this end, human fibroblasts were cultivated as described in a), exposed to UV-A rays (20 J/cm^2) and the cell counts and the GSH content subsequently determined. The results are set out in Table 3, where they are expressed in %-rel. against a blank sample, and represent the results of 3 series of measurements with triple determination.
# [3] = tested on: bacterial collagenase (clostridium histolyticum); test: Collagenase inhibition on FITC-marked gelatin; type: biochemical; settings: Conc. [w/v] 0.3; 60 mins. at 20° C.
# Protocol: In the event of inflammation, skin proteases, for example collagenase, are released from the polymorphonuclear neutrophilic granulocytes or macrophages. A similar process takes place in the skin of elderly people on exposure to UV rays. As already mentioned, the proteases—also known as matrix metalloproteases (MMPs) through their content of central zinc ions—catalyze the fragmentation of connective tissue proteins. The test substances were tested for collagenase inhibition using bacterial collagenase (clostridium histolyticum) on gelatin marked with fluorochromium (FITC, Calbiochem) as a natural nutrient medium. The incubation time was 60 mins. at 20° C.; the hydrolysis of the substrate was monitored by fluorescence at 393 nm (excitation at 328 nm). The results are set out in Table 6 as the collagenase inhibition in %.
# Propionibacterium acnes [4] = test: Agar diffusion method, inhibition zones; type: cell-based; settings: filter paper with 20 μl test substance; 18 to 24 h at 37° C., anaerobic
# Protocol: (§1) The antibacterial activity of the test substances was tested by the diffusion method on agar plates or the agar dilution method. In this method, a round filter paper of defined diameter is first impregnated with the test solution and then applied to the surface of an agar plate inoculated beforehand with the test microorganisms. The size of the inhibition zones is then determined after defined times. In particular, it is possible by this method to determine the MIC (Minimum Inhibitory Concentration) as the lowest concentration of test substance with which complete inhibition of the microorganisms can be obtained.
# (§2) Agar diffusion method. The inoculum was prepared using a fresh culture in a stationary growth phase (after ca. 18-24 h) in a BHI solution (brain-heart Infusion). The bacterial suspension was adjusted to 0.5 MacFarland units, corresponding to 1.5 10^8 colony-forming units (cfu)/ml; the suspension was then diluted with a sodium chloride solution (1:100) to adjust a value of 1.5 10^6 cfu/ml. Mueller-Hinton agar (Staphylococcus epidermidis, Staphylococcus aureus) and Wilkins-Chalgrens agar containing 5% by weight sheep's blood (Propionibacterium acnes) were then sterilized for 15 mins. at 121° C. and then placed in Petri dishes. 2 to 4 ml of the bacterial suspension were then added to the Petri dishes, followed by drying at room temperature. The filter papers were impregnated with 20 μl of the test substances and applied to the surface of the agar plates. The inoculated Petri dishes were incubated for 18 to 24 h at 37° C. (the Petri dishes containing Propionibacterium acnes under anaerobic conditions) and the antimicrobial activity was then determined by determination of the growth inhibition zones. The results are set out in Table 10 and represent the diameters of the inhibition zones in mm.
# Staphylococcus aureus [5] = test: Agar diffusion method, inhibition zones; type: cell-based; settings: filter paper with 20 μl test substance; 18 to 24 h at 37° C.
# Protocol: as §1, §2
# [6] = tested on: Staphylococcus epidermidis; test: Agar diffusion method, inhibition zones; type: cell-based; settings: filter paper with 20 μl test substance; 18 to 24 h at 37° C.
# Protocol: as §1, §2
# [7] = tested on: melanocytes (B16 cell line); test: Inhibition of melanin synthesis in B16 melanocytes; type: cell-based; settings: 3 days, blank value = 100
# Protocol: Melanin is the pigment responsible for the color of the skin and hair. It is formed in special organelles, the melanosomes, which occur in the melanocytes of the basal layer of the human epidermis. The biosynthesis of melanin begins with the amino acid tyrosine which is oxidized to DOPA (dihydroxyphenylalanine) in the presence of tyrosinase. The DOPA then polymerizes to melanin. […] After incubation for 3 days at 37° C./5% CO2, the nutrient medium was replaced by a solution containing the test substances in various concentrations. After incubation for another 3 days, the cell protein content (Bradford's method) and the content of synthesized melanin were determined through the optical density of the homogenizate at 475 nm. The results are expressed in % against a blank value and are set out in Table 7.
# Propionibacterium acnes [8] = test: Agar dilution method (MIC determination); type: cell-based; settings: 18 to 24 h at 37° C.
# Protocol: as §1, with “obtained. Agar dilution method (MIC determination). Various agars were prepared as described above, test substances were added in various concentrations, homogenized and dried. The Petri dishes were then inoculated with quantities of 2 μl of the bacterial suspension. After each drying step the Petri dishes were incubated for 18 to 24 h at 37° C. […] The results represent the averages of double determinations.” for “obtained.”
# Staphylococcus aureus [9] = test: Agar dilution method (MIC determination); type: cell-based; settings: 18 to 24 h at 37° C.
# Protocol: as §1, with “obtained. Agar dilution method (MIC determination). Various agars were prepared as described above, test substances were added in various concentrations, homogenized and dried. The Petri dishes were then inoculated with quantities of 2 μl of the bacterial suspension. After each drying step the Petri dishes were incubated for 18 to 24 h at 37° C. […] The results represent the averages of double determinations.” for “obtained.”
# [10] = tested on: Staphylococcus epidermidis; test: Agar dilution method (MIC determination); type: cell-based; settings: 18 to 24 h at 37° C.
# Protocol: as §1, with “obtained. Agar dilution method (MIC determination). Various agars were prepared as described above, test substances were added in various concentrations, homogenized and dried. The Petri dishes were then inoculated with quantities of 2 μl of the bacterial suspension. After each drying step the Petri dishes were incubated for 18 to 24 h at 37° C. […] The results represent the averages of double determinations.” for “obtained.”
Substance,GSH/proteins (human fibroblasts [1]),Cell proteins (human fibroblasts [2]),GSH/proteins (human fibroblasts [2]),Collagenase inhibition [3],"Inhibition zones, Propionibacterium acnes (Propionibacterium acnes [4])","Inhibition zones, Staphylococcus aureus (Staphylococcus aureus [5])","Inhibition zones, Staphylococcus epidermidis [6]",Cell melanin ([7]; conc. 0.001 % w/v),Cell proteins ([7]; conc. 0.001 % w/v),Cell melanin ([7]; conc. 0.003 % w/v),Cell proteins ([7]; conc. 0.003 % w/v),"MIC, Propionibacterium acnes (Propionibacterium acnes [8])","MIC, Staphylococcus aureus (Staphylococcus aureus [9])","MIC, Staphylococcus epidermidis [10]"
Trehalose palmitate,125 %-rel.,124 %-rel.,87 %-rel.,9 %-rel.,0 mm,14 mm,11 mm,,,,,,,
Trehalose stearate,141 %-rel.,124 %-rel.,84 %-rel.,,0 mm,12 mm,11 mm,81 %-rel.,97 %-rel.,41 %-rel.,93 %-rel.,1250 µg/mL,>10000 µg/mL,625 µg/mL
